From BindingDB's records for doi:10.1021/jm070166b (Merck Research Laboratories, 2007)

Assay: Antagonist activity against human CCR2 receptor in human monocytes assessed as inhibition of chemotaxis

IC50: 57 nM
Structure (SMILES): C[C@H]1CN([C@@H]2CC[C@H](C(=O)NCc3cc(C(F)(F)F)cc(C(F)(F)F)c3)C2)CC[C@@]12C=Cc1ccccc12 [(1S,3R)-N-{[3,5-bis(trifluoromethyl)phenyl]methyl}-3-[(1R,5'R)-5'-methylspiro[indene-1,4'-piperidine]-1'-yl]cyclopentane-1-carboxamide]
